In article PMC11470957, “Principles of paralog-specific targeted protein degradation engaging the C-degron E3 KLHDC2” (Nature Communications, 2024):

System: BRD proteins in U2OS KO/rescue lysate
Assay: Degradation in non-denaturing lysates of U2OS KO/rescue cells
Settings: non-denaturing U2OS KO/rescue lysate 4mg/ml, 10 µM, 30° C

In the case of `Cc1sc2c(c1C)C(c1ccc(Cl)cc1)=N[C@@H](CC(=O)N1CCN(CCOc3cccc4ccc(-c5nc(CC(=O)NCC(=O)O)cs5)cc34)CC1)c1nnc(C)n1-2` [SJ46421], the “degrader dependent decrease in BRD protein levels in lysate” value is reported as “did not observe a degrader dependent decrease”.
